Experimental data from ChEMBL document CHEMBL5370551, “Inside PD-1/PD-L1,2 with their inhibitors” (Eur J Med Chem, 2023).
Values belong to the compound of their own block, whether it stands above or below them. Residues, ends and D or L forms follow the SMILES beside them.

Legend:
[1] = target: T1, Programmed cell death protein 1/Programmed cell death 1 ligand 1 (Homo sapiens, UniProt Q15116+Q9NZQ7); test: Inhibition of biotinylated human PD-I/human PD-L1 interaction at 100 uM incubated for 2 hrs by ELISA relative to control; format: protein-complex assay
T1 sequence (Q15116 whole entry, the tested form may be a part): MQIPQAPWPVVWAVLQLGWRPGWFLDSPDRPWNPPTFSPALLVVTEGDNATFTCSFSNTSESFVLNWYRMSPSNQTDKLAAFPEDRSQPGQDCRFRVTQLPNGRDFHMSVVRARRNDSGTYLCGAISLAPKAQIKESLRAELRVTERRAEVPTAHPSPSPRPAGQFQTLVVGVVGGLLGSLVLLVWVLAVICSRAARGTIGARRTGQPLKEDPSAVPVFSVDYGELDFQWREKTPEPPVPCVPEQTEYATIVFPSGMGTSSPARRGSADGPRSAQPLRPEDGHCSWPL
T1 sequence (Q9NZQ7 whole entry, the tested form may be a part): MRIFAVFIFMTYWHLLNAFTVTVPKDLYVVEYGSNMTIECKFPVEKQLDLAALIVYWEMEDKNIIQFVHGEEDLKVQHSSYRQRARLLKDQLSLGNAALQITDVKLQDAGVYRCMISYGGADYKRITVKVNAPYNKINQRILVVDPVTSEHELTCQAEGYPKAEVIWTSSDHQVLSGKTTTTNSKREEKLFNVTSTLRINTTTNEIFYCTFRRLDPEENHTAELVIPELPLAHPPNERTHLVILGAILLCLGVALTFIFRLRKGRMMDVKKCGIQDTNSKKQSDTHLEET

[2] = target: Programmed cell death 1 ligand 1 (Homo sapiens) (UniProt Q9NZQ7); test: Inhibition of human recombinant extracellular domain PD-L1 in human DU-145 cells incubated for 1 hr relative to control; format: cell-based; conditions: concentration not given here
Programmed cell death 1 ligand 1 (Homo sapiens), sequence (Q9NZQ7 whole entry, the tested form may be a part): as above

[3] = Cytotoxicity against human MDA-MB-231 cells assessed as reduction in cell growth by MTT assay; format: toxicity, cell-based
[4] = target: T1, Programmed cell death protein 1/Programmed cell death 1 ligand 1; test: Inhibition of PD-I/PD-L1 interaction (unknown origin) by HTRF assay; format: protein-complex assay
[5] = target: T1, Programmed cell death protein 1/Programmed cell death 1 ligand 1; test: Inhibition of biotinylated human PD-I /His-tagged PD-L1 (unknown origin) interaction incubated for 90 mins in dark condition by AlphaLISA assay; format: protein-complex assay
[6] = target: T1, Programmed cell death protein 1/Programmed cell death 1 ligand 1; test: Inhibition of PD-I/PD-L1 interaction (unknown origin) by ELISA; format: protein-complex assay
B16-F10 [7] = test: Antitumor activity against mouse B16-F10 expressing human PD-L1 allografted in C57BL/6 mouse assessed as inhibition of tumor growth at 10 mg/kg, ip administered every 3 days for 24 days relative to control; format: functional; conditions: B16-F10, 72 h, time 3 day
B16-F10 [8] = test: Antitumor activity against mouse B16-F10 expressing human PD-L1 allografted in C57BL/6 mouse assessed as inhibition of tumor growth at 10 mg/kg, ip administered every 2 days for 24 days relative to control; format: functional; conditions: B16-F10, 48 h, time 2 day
[9] = target: T1, Programmed cell death protein 1/Programmed cell death 1 ligand 1; test: Inhibition of PD-1/PD-L1 interaction (unknown origin) by HTRF assay; format: protein-complex assay
[10] = target: T1, Programmed cell death protein 1/Programmed cell death 1 ligand 1; test: Inhibition of PD-1/PD-L1 interaction (unknown origin) at 25 uM by AlphaLISA assay relative to control; format: protein-complex assay
PD1-PDL2 [11] = target: T2, PD1-PDL2 (Homo sapiens, UniProt Q15116+Q9BQ51); test: Inhibition of PD-I/PD-L2 interaction (unknown origin) expressed in HEK293 cells; format: cell-based
T2 sequence (Q15116 whole entry): as the sequence (Q15116 whole entry, the tested form may be a part) above
T2 sequence (Q9BQ51 whole entry): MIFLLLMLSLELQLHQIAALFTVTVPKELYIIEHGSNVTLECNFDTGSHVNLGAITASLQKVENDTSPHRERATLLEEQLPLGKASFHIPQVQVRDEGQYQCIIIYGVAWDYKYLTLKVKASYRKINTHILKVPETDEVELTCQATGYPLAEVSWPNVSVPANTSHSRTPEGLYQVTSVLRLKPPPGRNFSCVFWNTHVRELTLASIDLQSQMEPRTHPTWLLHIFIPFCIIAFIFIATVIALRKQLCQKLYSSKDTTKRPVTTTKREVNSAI

PD1-PDL2 [12] = target: T2, PD1-PDL2; test: Inhibition of PD-I/PD-L2 interaction (unknown origin) expressed in human […] cells; format: cell-based
[13] = Oral bioavailability in mouse; format: ADME, organism-based; conditions: in vivo
[14] = target: Programmed cell death 1 ligand 1 (Homo sapiens) (UniProt Q9NZQ7); test: Induction of PD-L1 degradation in human NCI-H292 at 20 uM relative to control; format: cell-based
NCI-H292 = test: Cytotoxicity against human NCI-H292 cells assessed as inhibition of cell growth; format: functional, cell-based
[15] = target: T1, Programmed cell death protein 1/Programmed cell death 1 ligand 1; test: Inhibition of PD-I/PD-L1 interaction (unknown origin); format: protein-complex assay
[16] = target: T1, Programmed cell death protein 1/Programmed cell death 1 ligand 1; test: Inhibition of Fc-fused recombinant human PD-I/His-tagged recombinant human PD-L1 interaction incubated overnight by HTRF assay; format: protein-complex assay

SMILES: O=C(c1cc2ccccc2[nH]1)N1CCN(Cc2csc(-c3ccccc3)n2)CC1
- inhibition [1]: 21%

SMILES: CC(C)C[C@H](NC(=O)[C@H](CC(N)=O)NC(=O)[C@H](Cc1c[nH]c2ccccc12)NC(=O)[C@@H](NC(=O)[C@H](Cc1ccc(O)cc1)NC(=O)[C@H](Cc1ccc(O)cc1)NC(=O)[C@H](CO)NC(=O)[C@H](CCCNC(=N)N)NC(=O)[C@H](Cc1c[nH]cn1)NC(=O)[C@@H](N)Cc1c[nH]c2ccccc12)[C@@H](C)O)C(=O)N[C@@H](CC(N)=O)C(=O)N[C@H](C(=O)O)[C@@H](C)O (H-WHRSYYTWNLNT-OH)
- inhibition [2]: 80%

SMILES: COc1nc(-c2cccc(-c3ccccc3F)c2C)ccc1CNCCC(N)=O
- EC50 [3]: 11100 nM
- IC50 [4]: 0.9 nM

SMILES: CO[C@H]1/C=C/O[C@@]2(C)Oc3c(C)c(O)c4c(c3C2=O)C2=NC3(CCN(CC(C)C)CC3)NC2=C(NC(=O)/C(C)=C\C=C\[C@H](C)[C@H](O)[C@@H](C)[C@@H](O)[C@@H](C)[C@H](OC(C)=O)[C@@H]1C)C4=O [RIFABUTIN]
- IC50 [5]: 25000 nM

SMILES: CSCC[C@H](NC(=O)[C@H](CC(=O)O)NC(=O)[C@H](Cc1ccccc1)NC(=O)[C@H](CCCNC(=N)N)NC(=O)[C@H](Cc1ccc(O)cc1)NC(=O)[C@H](CC(=O)O)NC(=O)[C@H](CCCNC(=N)N)NC(=O)[C@H](Cc1c[nH]c2ccccc12)NC(=O)[C@@H](NC(=O)[C@H](Cc1c[nH]c2ccccc12)NC(=O)[C@@H](N)CCCNC(=N)N)C(C)C)C(=O)NCC(=O)N[C@@H](Cc1ccccc1)C(=O)N[C@@H](CC(=O)O)C(=O)N[C@@H](Cc1c[nH]c2ccccc12)C(=O)N[C@H](C(=O)N[C@@H](Cc1c[nH]c2ccccc12)C(=O)N[C@@H](CCC(=O)O)C(=O)O)C(C)C (H-RWVWRDYRFDMGFDWVWE-OH)
- IC50 [6]: 600 nM

SMILES: NC(=O)c1ccccc1NC(=O)c1ccc(-c2ccccc2)cc1
- inhibition in vivo at 10 mg/kg (B16-F10 [7]): 66%
- inhibition in vivo at 10 mg/kg (B16-F10 [8]): 62%

SMILES: Cc1cc(/C=C/c2ccc3cc(N(C)C)ccc3[n+]2C)c(C)n1-c1ccccc1
- IC50 [9]: 30000 nM
- inhibition [10]: 44.5%

- EC50 (PD1-PDL2 [11]): 0.72 nM
- EC50 (PD1-PDL2 [12]): 0.41 nM
SMILES: CC[C@H](C)[C@H](NC(=O)[C@H](CCC(N)=O)NC(=O)[C@H](C)NC(=O)[C@H](CCCCN)NC(=O)[C@@H]1CCCN1C(=O)[C@H](C)NC(=O)[C@H](CC(C)C)NC(=O)[C@H](CCC(N)=O)NC(=O)[C@@H](NC(=O)[C@@H](NC(=O)[C@H](CCCNC(=N)N)NC(=O)[C@H](Cc1ccccc1)NC(=O)[C@H](CCCCNC(=O)[C@H](Cc1ccccc1)NC(=O)[C@H](CO)NC(=O)[C@H](CCC(=O)O)NC(=O)[C@H](CO)NC(=O)[C@@H](NC(=O)[C@H](CC(N)=O)NC(=O)[C@@H](N)CO)[C@@H](C)O)NC(=O)[C@H](Cc1ccccc1)NC(=O)[C@H](CO)NC(=O)[C@H](CCC(=O)O)NC(=O)[C@H](CO)NC(=O)[C@@H](NC(=O)[C@H](CC(N)=O)NC(=O)[C@@H](N)CO)[C@@H](C)O)C(C)C)[C@@H](C)O)C(=O)N[C@@H](CCCCN)C(=O)N[C@@H](CCC(=O)O)C(N)=O

- bioavailability [13]: 25%
SMILES: CC1=C(C(=O)OCc2ccccc2)C(CC(C)(C)C)C(C(=O)OCc2ccccc2)=C(C)N1
- Activity [14]: 67%
- IC50 (NCI-H292): 62000 nM

SMILES: Cc1c(COc2ccc(CN[C@H](CO)C(=O)O)c(OCc3cccc(C#N)c3)c2)cccc1-c1ccc2c(c1)OCCO2
- IC50 [15]: 2.25 nM
